Measurements: patent US8735414B2 (priority 2009, dated 2014)

Legend:
[1] = test system: bicistronic HCV replicon (replicon RNA, GenBank Accession No. AJ242654); experiment: HCV Replicon Assay; type: cell-based; details: Hepatitis C virus, 72 h, read-out: Replicon IC50

SMILES | IC50 [1] | melting point
COc1ccnc(-n2c(-c3ccc(S(=O)(=O)N[C@@H](C)C(F)(F)F)cn3)c(C(N)=O)c3cc(F)c(C)cc32)n1 [compound 906, 5-fluoro-1-(4-methoxypyrimidin-2-yl)-6-methyl-2-(5-{[(2S)-1,1,1-trifluoropropan-2-yl]sulfamoyl}pyridin-2-yl)-1H-indole-3-carboxamide] | < 500 nM | 167 to 174 °C
CC(=O)c1cc2c(cc1F)c(C#N)c(-c1ccc(S(=O)(=O)N[C@@H](C)C(F)(F)F)cn1)n2-c1ncccn1 [compound 907, 6-[6-acetyl-3-cyano-5-fluoro-1-(pyrimidin-2-yl)-1H-indol-2-yl]-N-[(2S)-1,1,1-trifluoropropan-2-yl]pyridine-3-sulfonamide] | < 500 nM | 220 to 221 °C
Cc1cc2c(cc1F)c(C(N)=O)c(-c1ccc(S(=O)(=O)N[C@@H](C)C(F)(F)F)cn1)n2-c1cccnn1 [compound 912, 5-fluoro-6-methyl-1-(pyridazin-3-yl)-2-(5-{[(2S)-1,1,1-trifluoropropan-2-yl]sulfamoyl}pyridin-2-yl)-1H-indole-3-carboxamide] | 2000 to 5000 nM | 176 to 181 °C
Cc1cc2c(cc1F)c(C(N)=O)c(-c1ccc(S(=O)(=O)N[C@@H](C)C(F)(F)F)cn1)n2-c1cccnc1 [compound 913, 5-fluoro-6-methyl-1-(pyridin-3-yl)-2-(5-{[(2S)-1,1,1-trifluoropropan-2-yl]sulfamoyl}pyridin-2-yl)-1H-indole-3-carboxamide] | < 500 nM | 223 to 227 °C
Cc1cc2c(cc1F)c(C#N)c(-c1ccc(S(=O)(=O)N[C@@H](C)C(F)(F)F)cn1)n2-c1ncc(Cl)cn1 [compound 914, 6-[1-(5-chloropyrimidin-2-yl)-3-cyano-5-fluoro-6-methyl-1H-indol-2-yl]-N-[(2S)-1,1,1-trifluoropropan-2-yl]pyridine-3-sulfonamide] | < 500 nM | 213 to 218 °C
Cc1cncc(-n2c(-c3ccc(S(=O)(=O)N[C@@H](C)C(F)(F)F)cn3)c(C#N)c3cc(F)c(C)cc32)n1 [compound 915, 6-[3-cyano-5-fluoro-6-methyl-1-(6-methylpyrazin-2-yl)-1H-indol-2-yl]-N-[(2S)-1,1,1-trifluoropropan-2-yl]pyridine-3-sulfonamide] | < 500 nM | 211 to 215 °C
Cc1ccc2c(c1)c(C(N)=O)c(-c1ccc(S(=O)(=O)N[C@@H](C)C(F)(F)F)cn1)n2-c1cnccn1 [compound 916, 5-methyl-1-(pyrazin-2-yl)-2-(5-{[(2S)-1,1,1-trifluoropropan-2-yl]sulfamoyl}pyridin-2-yl)-1H-indole-3-carboxamide] | < 500 nM | 240 to 245 °C
Cc1cc2c(C#N)c(-c3ccc(S(=O)(=O)N[C@@H](C)C(F)(F)F)cn3)n(-c3ccccn3)c2cc1F [compound 917, 6-[3-cyano-6-fluoro-5-methyl-1-(pyridin-2-yl)-1H-indol-2-yl]-N-[(2S)-1,1,1-trifluoropropan-2-yl]pyridine-3-sulfonamide] | < 500 nM | 175 to 180 °C
Cc1cc2c(C(N)=O)c(-c3ccc(S(=O)(=O)N[C@@H](C)C(F)(F)F)cn3)n(-c3ncccn3)c2cc1F [compound 918, 6-fluoro-5-methyl-1-(pyrimidin-2-yl)-2-(5-{[(2S)-1,1,1-trifluoropropan-2-yl]sulfamoyl}pyridin-2-yl)-1H-indole-3-carboxamide] | 2000 to 5000 nM | 245 to 249 °C
Cc1cc2c(C#N)c(-c3ccc(S(=O)(=O)N[C@@H](C)C(F)(F)F)cn3)n(-c3cnccn3)c2cc1F [compound 919, 6-[3-cyano-6-fluoro-5-methyl-1-(pyrazin-2-yl)-1H-indol-2-yl]-N-[(2S)-1,1,1-trifluoropropan-2-yl]pyridine-3-sulfonamide] | < 500 nM | 233 to 238 °C
Cc1ccc2c(c1)c(C#N)c(-c1ccc(S(=O)(=O)N[C@@H](C)C(F)(F)F)cn1)n2-c1ccc(F)cc1 [compound 920, 6-[3-cyano-1-(4-fluorophenyl)-5-methyl-1H-indol-2-yl]-N-[(2S)-1,1,1-trifluoropropan-2-yl]pyridine-3-sulfonamide] | < 500 nM | 195 to 200 °C
Cc1ccc2c(c1)c(C#N)c(-c1ccc(S(=O)(=O)N[C@@H](C)C(F)(F)F)cn1)n2-c1ccccc1 [compound 921, 6-(3-cyano-5-methyl-1-phenyl-1H-indol-2-yl)-N-[(2S)-1,1,1-trifluoropropan-2-yl]pyridine-3-sulfonamide] | < 500 nM | 160 to 165 °C
C[C@H](NS(=O)(=O)c1ccc(-c2c(C#N)c3cc(C(F)(F)F)ccc3n2-c2ncccn2)nc1)C(F)(F)F [compound 922, 6-[3-cyano-1-(pyrimidin-2-yl)-5-(trifluoromethyl)-1H-indol-2-yl]-N-[(2S)-1,1,1-trifluoropropan-2-yl]pyridine-3-sulfonamide] | < 500 nM | 180 to 183 °C
Cc1cccc(-n2c(-c3ccc(S(=O)(=O)N[C@@H](C)C(F)(F)F)cn3)c(C#N)c3cc(F)c(C)cc32)n1 [compound 923, 6-[3-cyano-5-fluoro-6-methyl-1-(6-methylpyridin-2-yl)-1H-indol-2-yl]-N-[(2S)-1,1,1-trifluoropropan-2-yl]pyridine-3-sulfonamide] | < 500 nM | 219 to 225 °C
Cc1cnc(-n2c(-c3ccc(S(=O)(=O)N[C@@H](C)C(F)(F)F)cn3)c(C#N)c3cc(F)c(C)cc32)nc1 [compound 925, 6-[3-cyano-5-fluoro-6-methyl-1-(5-methylpyrimidin-2-yl)-1H-indol-2-yl]-N-[(2S)-1,1,1-trifluoropropan-2-yl]pyridine-3-sulfonamide] | < 500 nM | 179 to 184 °C
Cc1cc2c(cc1F)c(C#N)c(-c1ccc(S(=O)(=O)N[C@@H](C)C(F)(F)F)cn1)n2-c1cc(F)ccn1 [compound 926, 6-[3-cyano-5-fluoro-1-(4-fluoropyridin-2-yl)-6-methyl-1H-indol-2-yl]-N-[(2S)-1,1,1-trifluoropropan-2-yl]pyridine-3-sulfonamide] | < 500 nM | 229 to 233 °C
CCc1cc2c(cc1F)c(C#N)c(-c1ccc(S(=O)(=O)N[C@@H](C)C(F)(F)F)cn1)n2-c1cnccn1 [compound 929, 6-[3-cyano-6-ethyl-5-fluoro-1-(pyrazin-2-yl)-1H-indol-2-yl]-N-[(2S)-1,1,1-trifluoropropan-2-yl]pyridine-3-sulfonamide] | < 500 nM | 225 to 229 °C
CCc1cc2c(cc1F)c(C#N)c(-c1ccc(S(=O)(=O)N[C@@H](C)C(F)(F)F)cn1)n2-c1cccc(F)n1 [compound 930, 6-[3-cyano-6-ethyl-5-fluoro-1-(6-fluoropyridin-2-yl)-1H-indol-2-yl]-N-[(2S)-1,1,1-trifluoropropan-2-yl]pyridine-3-sulfonamide] | < 500 nM | 205 to 211 °C
CCc1cc2c(cc1F)c(C#N)c(-c1ccc(S(=O)(=O)N[C@@H](C)C(F)(F)F)cn1)n2-c1cc(C)ccn1 [compound 932, 6-[3-cyano-6-ethyl-5-fluoro-1-(4-methylpyridin-2-yl)-1H-indol-2-yl]-N-[(2S)-1,1,1-trifluoropropan-2-yl]pyridine-3-sulfonamide] | < 500 nM | 188 to 190 °C
Cc1cc2c(cc1F)c(C#N)c(-c1ccc(S(=O)(=O)N[C@@H](C)C(F)(F)F)cn1)n2-c1ccncc1 [compound 933, 6-[3-cyano-5-fluoro-6-methyl-1-(pyridin-4-yl)-1H-indol-2-yl]-N-[(2S)-1,1,1-trifluoropropan-2-yl]pyridine-3-sulfonamide] | < 500 nM | 250 to 255 °C
Cc1cc2c(cc1F)c(C#N)c(-c1ccc(S(=O)(=O)N[C@@H](C)C(F)(F)F)cn1)n2-c1nccs1 [compound 934, 6-[3-cyano-5-fluoro-6-methyl-1-(1,3-thiazol-2-yl)-1H-indol-2-yl]-N-[(2S)-1,1,1-trifluoropropan-2-yl]pyridine-3-sulfonamide] | < 500 nM | 203 to 208 °C
CCc1cc2c(cc1F)c(C#N)c(-c1ccc(S(=O)(=O)N[C@@H](C)C(F)(F)F)cn1)n2-c1nccs1 [compound 935, 6-[3-cyano-6-ethyl-5-fluoro-1-(1,3-thiazol-2-yl)-1H-indol-2-yl]-N-[(2S)-1,1,1-trifluoropropan-2-yl]pyridine-3-sulfonamide] | < 500 nM | 187 to 191 °C
CC(C)n1c(-c2ccc(S(=O)(=O)N[C@@H](C)C(F)(F)F)cn2)c(C#N)c2cc(F)c(OC(F)F)cc21 [compound 936, 6-[3-cyano-6-(difluoromethoxy)-5-fluoro-1-(propan-2-yl)-1H-indol-2-yl]-N-[(2S)-1,1,1-trifluoropropan-2-yl]pyridine-3-sulfonamide] | < 500 nM | 184 to 188 °C
CC(C)Cn1c(-c2ccc(S(=O)(=O)N[C@@H](C)C(F)(F)F)cn2)c(C#N)c2cc(F)c(OC(F)F)cc21 [compound 937, 6-[3-cyano-6-(difluoromethoxy)-5-fluoro-1-(2-methylpropyl)-1H-indol-2-yl]-N-[(2S)-1,1,1-trifluoropropan-2-yl]pyridine-3-sulfonamide] | < 500 nM | 130 to 134 °C
CC(C)(C)NS(=O)(=O)c1ccc(-c2c(C#N)c3cc(F)c(Br)cc3n2-c2ncccn2)nc1 [compound 938, 6-[6-bromo-3-cyano-5-fluoro-1-(pyrimidin-2-yl)-1H-indol-2-yl]-N-tert-butylpyridine-3-sulfonamide] | < 500 nM | 266 to 268 °C
C[C@H](NS(=O)(=O)c1ccc(-c2c(C#N)c3cc(F)c(OC(F)F)cc3n2CCO)nc1)C(F)(F)F [compound 940, 6-[3-cyano-6-(difluoromethoxy)-5-fluoro-1-(2-hydroxyethyl)-1H-indol-2-yl]-N-[(2S)-1,1,1-trifluoropropan-2-yl]pyridine-3-sulfonamide] | 500 to 2000 nM | 203 to 208 °C
